Measurements from article PMC8222276 (Communications Biology, 2021).
Values belong to the compound of their own block, whether it stands above or below them.

What was measured:
HUVECs = experiment: cell proliferation (72 h) of HUVECs; format: cell-based, human; conditions: HUVEC, 72 h
Protocol: (§1) Data are analysed using a three-parameter non-linear regression curve or the operational model of receptor agonism. g–h Signalling bias plots were calculated as ∆Log(τ/KA) (g) or ∆∆Log(τ/KA) (h) for each agonist and for each signalling pathway. […] Solid arrows indicate known pathways. Dashed arrows represent possible pathways.
Both endothelial cell lines and HCMs were seeded at a density of 2500 cells/well in a clear flat bottom 96-well plate (Corning, UK) and incubated at 37 °C in 5% CO2. After 24 h, cells were exposed to test compounds or vehicle, in complete endothelial cell growth media (HUVECs) or myocyte growth media (HCMs). Cells were incubated for a further 72 h at 37 °C in 5% CO2. After 72 h incubation, 5 μl of Cell Counting Kit–8 (CCK-8, Sigma, UK) was added to each well and cells were then incubated for another 2 h at 37 °C in 5% CO2 and in the dark[61]. The absorbance of each well was measured using a Mithras LB940 microplate reader with an excitation of 450 nm. The absorbance is directly proportional to the number of viable cells. Cell proliferation was calculated as a percentage of number of cells treated with vehicle alone.
(§2) All sample sizes were determined, and data analysed, in accordance with the guidelines described by Curtis M et al.[65]. All experiments were appropriately controlled using ‘system pathway’ agonists. If any of these pathway controls generated inappropriate responses, then the entire data set was removed from analysis. […] Data analysis for cAMP accumulation, Ca^2+i mobilisation, NO accumulation, pERK1/2 activation, and cell proliferation assays were performed in GraphPad Prism 8.4 (GraphPad Software, San Diego). Data were fitted to obtain concentration–response curves using either the three-parameter logistic equation using to obtain values of Emax and pEC50 or the operational model of agonism. Statistical differences were analysed using one-way ANOVA followed by Dunnett’s post-hoc (for comparisons amongst more than two groups) or unpaired Student’s t test with Welch’s correction (for comparison between two groups). To account for the day-to-day variation experienced from the cultured cells, we used the maximal level of cAMP accumulation from cells in response to 100 μM forskolin stimulation was used as a reference, 10 μM ionomycin for Ca^2+i assays, 10 μM phorbol 12-myristate 13-acetate (PMA) for pERK1/2 activation, 10 μM acetylcholine for NO production and 10 μM VEGF for cell proliferation. […] Where appropriate the operational model for receptor agonism[27] was used to obtain efficacy (τ) and equilibrium disassociation constant (KA) values. In both cases, this normalisation removes the variation due to differences in days but retains the variance for control values. The means of individual experiments were combined to generate the curves shown. Having obtained values for τ and KA these were then used to quantify signalling bias as the change in Log(τ/KA)[19],[28]. Error for this composite measure was propagated by applying Eq. 1.1 PooledSEM=(SEMA)^2+(SEMB)^2 Where, SEMA and SEMB are the standard error of measurement A and B.

[1] = target: T1, CGRP receptor (CLR-RAMP1) in human cardiomyocytes (HCMs) (Homo sapiens, UniProt O60894+Q16602); experiment: antagonism of agonist-induced cAMP accumulation in HCMs; format: cell-based; conditions: HCM; 100 nM
T1 construct: primary human cardiomyocytes (HCMs) since these cells only expressed CLR and RAMP1; host or cells: primary human cardiomyocytes (HCMs)
T1 sequence (Q16602 23-461): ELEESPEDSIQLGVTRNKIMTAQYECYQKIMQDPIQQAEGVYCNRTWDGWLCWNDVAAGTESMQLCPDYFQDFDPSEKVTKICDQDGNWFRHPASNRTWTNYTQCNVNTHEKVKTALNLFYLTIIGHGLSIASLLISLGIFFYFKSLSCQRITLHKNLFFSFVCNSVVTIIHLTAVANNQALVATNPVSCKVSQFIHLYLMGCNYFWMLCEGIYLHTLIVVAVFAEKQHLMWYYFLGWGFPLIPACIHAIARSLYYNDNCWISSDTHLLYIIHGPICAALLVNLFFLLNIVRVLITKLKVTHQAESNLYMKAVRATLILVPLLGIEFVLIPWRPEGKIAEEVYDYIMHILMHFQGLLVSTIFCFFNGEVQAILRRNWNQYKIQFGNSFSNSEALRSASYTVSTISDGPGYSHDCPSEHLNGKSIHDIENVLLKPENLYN
T1 sequence (O60894 27-148): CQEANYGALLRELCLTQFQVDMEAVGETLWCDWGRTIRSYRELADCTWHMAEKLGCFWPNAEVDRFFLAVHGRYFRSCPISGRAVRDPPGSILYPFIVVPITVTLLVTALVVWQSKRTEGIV
Protocol: (§3) All primary cell lines were cultured as above. On the day of the experiment media was removed and cells washed with PBS, before being dissociated with Trypsin-EDTA 0.05% (Gibco, UK) and then resuspended in PBS/BSA (0.1%) (Sigma, UK). Cells were immediately plated for use in cAMP assay as per the manufacturer’s instructions, reagents used were provided by the LANCE® cAMP detection assay kit (PerkinElmer, Boston, MA, USA), in 384 well optiplates (PerkinElmer (Boston, MA, USA)) at 2000 cells/well in 5 μl aliquots. […] Cells were incubated with compound for 30 min prior to adding detection buffer[28],[60]. Plates were incubated for a further 60 min (room temperature) and then read on a plate reader (Mithras LB 940 microplate reader (Berthold technologies, Germany)). All responses were normalised to 100μM forskolin (Tocris, UK). Antagonist studies were performed in the same way through co-stimulation of the relevant concentration. Alongside control-treated cell. Experiments with PTX (Sigma, UK) required pretreatment (16 h) prior to assays.

AM receptors = conditions: at concentrations of up to 10 micromolar; ref Doods et al., Br. J. Pharmacol., 129, (2000), pp. 420-423; cited from earlier work
[2] = target: T2, AM1 receptor (CLR-RAMP2) in HUVECs (Homo sapiens, UniProt O60895+Q16602); experiment: antagonism of agonist-induced cAMP accumulation in HUVECs; format: cell-based; conditions: HUVEC; 100 nM
T2 construct: HUVECs specifically express the AM1 receptor alone; host or cells: primary HUVECs
T2 sequence (Q16602 23-461): as the sequence (Q16602 23-461) above
T2 sequence (O60895 43-175): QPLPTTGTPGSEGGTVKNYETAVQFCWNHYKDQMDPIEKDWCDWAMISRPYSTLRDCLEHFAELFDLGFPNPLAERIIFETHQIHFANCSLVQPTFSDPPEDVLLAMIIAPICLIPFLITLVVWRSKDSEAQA
Protocol: as §3

[3] = target: T2, AM1 receptor (CLR-RAMP2) in HUVECs; experiment: mobilisation of Ca2+i in HUVECs; format: cell-based; conditions: HUVEC; Gαq/11/14 inhibitor co-treatment, 100 nM
Protocol: as §1
All cell lines were plated at 20,000 cells/well on 96-well black clear-bottom plates (Costar, UK) 24 h before the experiment. […] Cells were then washed twice with calcium-free HBSS, then were left in 100 μl calcium-free HBSS for the duration of the assay. […] Data was normalised to the response seen with 10 μM Ionomycin.
(§4) All sample sizes were determined, and data analysed, in accordance with the guidelines described by Curtis M et al.[65]. All experiments were appropriately controlled using ‘system pathway’ agonists. If any of these pathway controls generated inappropriate responses, then the entire data set was removed from analysis. […] Statistical differences were analysed using one-way ANOVA followed by Dunnett’s post-hoc (for comparisons amongst more than two groups) or unpaired Student’s t test with Welch’s correction (for comparison between two groups). […] Having obtained values for τ and KA these were then used to quantify signalling bias as the change in Log(τ/KA)[19],[28]. […]

[4] = target: T2, AM1 receptor (CLR-RAMP2) in HUVECs; experiment: total nitric oxide production in HUVECs; format: cell-based; conditions: HUVEC
Protocol: as §1
Endothelial cells and HCMs were cultured as above. 24 h prior to assay cells were plated on Costar 96-well black clear bottom plates at 40,000 cells/well. The assay was performed according to the manufacturer’s protocol. Briefly, cells pre-incubated with NO dye and assay buffer 1 (Fluorometric Nitric Oxide Assay Kit, Abcam, UK) for 30 min at 37 °C in 5% CO2. Any inhibitors requiring 30 min pre-treatment (YM/L-NAME/DMSO control) were added at this point. Ligand stimulation occurred immediately after this for 15 min at 37 °C in 5% CO2. Stain and ligand solution was removed, assay buffer II was added, and wells were read immediately. The absorbance was measured using a Tecan T200 (Thermo Fisher Scientific UK) reader with an excitation/emission of 540/590 nm. Endothelial cell responses were normalised to 10 μM acetylcholine. HCM responses were normalised to 10 μM isoproterenol[63],[64].
as §2

[5] = target: T2, AM1 receptor (CLR-RAMP2) in HUVECs; experiment: cAMP accumulation in HUVECs; format: cell-based; conditions: HUVEC; calcitonin receptor agonists
Protocol: as §1
All primary cell lines were cultured as above. On the day of the experiment media was removed and cells washed with PBS, before being dissociated with Trypsin-EDTA 0.05% (Gibco, UK) and then resuspended in PBS/BSA (0.1%) (Sigma, UK). […] Plates were incubated for a further 60 min (room temperature) and then read on a plate reader (Mithras LB 940 microplate reader (Berthold technologies, Germany)). […]
as §4, with “al.[65].” for “al.[65]. All experiments were appropriately controlled using ‘system pathway’ agonists. If any of these pathway controls generated inappropriate responses, then the entire data set was removed from analysis.”

Compound: C=C[C@@]1(C)CC(=O)[C@]2(O)[C@@]3(C)[C@@H](O)CCC(C)(C)[C@@H]3[C@H](O)[C@H](OC(C)=O)[C@@]2(C)O1 [forskolin]
- effect of forskolin on cell proliferation (HUVECs): concentration-dependent inhibition of cell proliferation

Compound: NCCCC[C@H](NC(=O)[C@@H](Cc1cc(Br)c(O)c(Br)c1)NC(=O)N1CCC(N2Cc3ccccc3NC2=O)CC1)C(=O)N1CCN(c2ccncc2)CC1 [olcegepant]
- effect on cAMP accumulation for all three agonists [1]: inhibit cAMP accumulation for all three agonists
- action on AM receptors (AM receptors): no actions on AM receptors
- effect on agonist-induced cAMP accumulation [2]: had little effect

- effect of YM-254890 on Ca2+i responses [3]: all responses could be abolished
- effect of YM-254890 on NO release [4]: abolished all NO release
Compound: YM-254890

Compound: amylin: calcitonin receptor agonist (KCNTATCATQRLANFLVHSSNNFGAILSSTNVGSNTY; Islet amyloid polypeptide; UniProt P10997 34-70, looked up)
- functional response [5]: unable to detect the presence of its transcript (Fig. 1a) or obtain a functional response

Compound: calcitonin: calcitonin receptor agonist
- functional response [5]: unable to detect the presence of its transcript (Fig. 1a) or obtain a functional response
